Experiment [1] relates to cd41:eGFP+ HSCs emerging from flk1:mCherry+ endothelial cells. As to the kind of experiment: Time-lapse confocal imaging of cd41:eGFP+ HSCs emerging from flk1:mCherry+ endothelial cells in transgenic embryos. Type of experiment: in vivo, zebrafish. As to conditions: 26-42 hpf. The method, then:
Mice were purchased Cd45.2 (C57BL6/J) and Cd45.1 (SJL) from The Jackson Laboratory and zebrafish morpholinos from GeneTools. Microangiography was performed by injecting fluorescent-labeled dextran dye in the atrium of zebrafish heart and its passage was recorded using live imaging. Immunostaining of zebrafish heart and mouse AGM were analyzed using an inverted fluorescent microscope. Cardiac tamponade, heart rate, and pulse frequency were analyzed in zebrafish embryos using bright field imaging or time-lapse confocal microscopy. The movement of red blood cells in blood vessels was analyzed as well as the endothelial-to-HSC transition in zebrafish transgenic embryos using time-lapse confocal imaging.
Zebrafish embryos were treated with the following chemical modulators in E3 fish media: 100 uM L-NAME (Fisher Scientific), 50 uM Digitoxigenin (Sigma), 25-50 uM Yoda1 (Cayman Chemical), 1 uM Nanaomycin (Nana; Fisher Scientific), 100 uM Gadolinium chloride (GdCl3; Sigma), 5-10 uM 4α-phorbol 12, 13-didecanaote (4Apdd; Sigma), or GSK205 (10 uM).
cd41:eGFP were crossed with flk1:mCherry zebrafish and flk1:mCherry with lcr:eGFP zebrafish and injected morpholino in their transgenic embryos. […] The relative movement of lcr:eGFP^+ red blood cells was analyzed in the context of flk1:mCherry^+ endothelium. We performed image analysis using Imaris (Bitplane) software.

The subject of a further experiment is E11.5 AGM cells. The experiment in a line: Whole transcriptome (RNA-seq) analyses of treated E11.5 AGM cells. Type of experiment: cell-based, mouse. Here is the method:
RNA-sequencing analyses were performed to measure gene expression patterns in mouse AGM treated with cyclic strain or pharmacological modulators. Using computational algorithms, hierarchical clustering was performed of differentially expressed genes as well as measured their overrepresented biological processes and pathways. Gene expression clusters of differentially expressed genes were analyzed and their mean expression level across cell populations compared. Next, Venn comparison of up- and down-genes was constructed to analyze candidate(s) important for cyclic strain- or pharmacological modulator(s)-mediated the endothelial-to-HSC transition. Furthermore, Dnmt3b and Dnmt3a protein expressions were analyzed in nuclear fractions of mouse AGM cells using EqiQuick assay kits. Data are presented as mean±s.d. unless otherwise noted. Statistical analyses were performed by paired or un-paired Student's t-tests. Significance was set at P<0.05.
Total RNA from E11.5 mouse AGM explant cultures was isolated (control, stretch, Yoda1 and 4αPDD conditions) with the RNAeasy MiniKit (QIAGEN). Our cDNA libraries were generated by BGI Americas Corporation and sequenced with a HiSeq4000 device (Illumina) at eight samples per lane. We mapped our sequenced read fragments to the mouse reference genome GRCm38 (ENSEMBL release 69) using the Genomic Short-Read Nucleotide Alignment program (version 2012-07-20). DESeq2 and DEXSeq were used to test for differential expression (FDR=0.1) and differential exon use, respectively. Gene expression clusters of differentially expressed genes were analyzed and their mean expression level across cell populations compared. Next, Venn comparison was performed of up- and down-genes to analyze candidate(s) important for cyclic strain- or pharmacological modulator(s)-mediating the endothelial-to-HSC transition. Specifically, we performed hierarchical clustering with bootstrap analyses using the gplots package (Warners et al., 2017) in R (R Development Core Team, 2012). […]

The subject of experiment [2] is human iPSC-derived MACS-sorted CD34+ cells. As to the kind of experiment: Hematopoietic CFU assays of human iPSC-derived MACS-sorted CD34+ cells. Type of experiment: cell-based. As to conditions: 20,000 hCD34+ cells per sample. Here is the method:
Embryoid body and hemogenic endothelium differentiation was performed as described in (Sugimura et al. 2017; Ditadi et al. 2015). Briefly, hiPSC colonies were dissociated with 0.05% trypsin for 5 min at 37° C., washed with PBS+2% FBS, and resuspended in StemPro-34 (Invitrogen, 10639-011) supplemented with L-glutamine (2 mM), penicillin/streptomycin ([…]), ascorbic acid (1 mM), human holo-Transferrin ([…], Sigma T0665), monothioglycerol (MTG, 0.4 mM), BMP4 (10 ng/ml), and Y-27632 (10 μM). Five million cells were seeded into 10 cm dishes (Ezsphere, Asahi Glass) for the spheroid formation. On Day 1, bFGF (5 ng/ml) and BMP4 (10 ng/ml) was added to the medium. On Day 2, the media was changed with the StemPro-34 supplemented with SB431542 (6 μM), CHIR99021 (3 μM), bFGF (5 ng/ml), and BMP4 (10 ng/ml). On Day 3, the medium was replaced with StemPro-34 supplemented with VEGF (15 ng/ml) and bFGF (10 ng/ml). On day 6, the medium was changed to StemPro-34 supplemented with bFGF (5 ng/ml), VEGF (15 ng/ml), interleukin (IL)-6 (10 ng/ml), IGF-1 (25 ng/ml), IL-11 (5 ng/ml), SCF (50 ng/ml) and EPO (2IU). The cells were maintained in a 5% CO2, 5% O2 and 95% humidity incubator. All cytokines were purchased from Peprotech. […]

The results in this text go back to US20230041065A1, “METHODS FOR GENERATING HEMATOPOIETIC STEM CELLS” (The Brigham and Women`s Hospital, Inc., priority 2019, published 2023).

“Also recorded” adds a separate entry of the source.

`Clc1cccc(Cl)c1CSc1nnc(-c2cnccn2)s1` [Yoda1, 2-[5-[[(2,6-Dichlorophenyl)methyl]thio]-1,3,4-thiadiazol-2-yl]-pyrazine]: the “HSC formation (endothelial-to-HSC transition)” value in experiment [1] (control embryos) was “stimulates HSC formation in control embryos”. Moreover, the “HSC formation (endothelial-to-HSC transition)” value in experiment [1] (sih-MO embryos) was “rescues HSC formation in sih-MO embryos”. For the same compound, in the experiment with E11.5 AGM cells, the “Dnmt3b and Gimap6 transcript expression (Venn comparison of up-regulated genes)” value is “specifically stimulate Dnmt3b transcript expression and Gimap6 transcript expression”; the “expression of endothelial genes” value is “diminished expression of endothelial genes; also recorded: repress the expression of endothelial genes”; the “expression of hematopoietic genes” value is reported as “elevated expression of hematopoietic genes; also recorded: stimulating the expression of hematopoietic genes”. The “multipotent GEMM progenitor formation” value in experiment [2] was “elevated multipotent hematopoietic progenitor formation and human hematopoiesis; also recorded: stimulates multipotent GEMM progenitor formation and human hematopoiesis”.
